The structures appear in SMILES notation. Where only a bound is given, the exact number is not on record here.

For the experiment, the system named is RAW 264.7 cells. As to the kind of experiment: Nitric oxide suppression assay (IFNγ-induced NO production, Griess detection). In kind it is cell-based. Conditions: RAW264.7, RAW 264.7 mouse macrophages, 2 h compound pre-treatment, 20 ng/mL interferon gamma, ~18 h. As to the method:
RAW 264.7, a mouse macrophage cell line, was obtained from American Type Culture Collection (Manassas Va.) and maintained in the log phase of growth in Dulbecco's Modified Eagle's Medium (DMEM), 10% heat inactivated fetal calf serum and 100 units/mL antibiotic-antimycotic (AA). Cells were cultured and maintained in a humidified incubator at 37° C. under 5% CO2 and 95% air. Cells were sub-cultured every 3 days by scraping and were not used beyond passage 20. All cell culture supplies were obtained from Life Technologies (Grand Island, N.Y.).
RAW 264.7 cells were plated 1 day in advance of experiment at a concentration of 80,000 cells/well onto CellBIND® 96 well plates (Corning, N.Y.) in a total volume of 100 μL. The next day, pre-treat cells with compounds (from 3 μM to 0.3 nM serially diluted in a 10 point curve) from a 10× stock by adding 10 μL per well in complete DMEM media containing 10% fetal calf serum. The plates were centrifuged for 3 minutes at 400×g at room temperature followed by 2 hour incubation at 37° C. The cells were then incubated overnight at 37° C. with 10 μL of the insult, interferon gamma (R&D Systems, Minneapolis, Minn.), from a 10× stock for a final concentration of 20 ng/mL. The plates were centrifuged for 3 minutes at 400×g at room temperature followed by ˜18 hour incubation at 37° C. The following day, transfer 50 μL cell culture supernatant from each well into a clear bottom 96 well plate and follow the instructions from Promega's Griess Detection Kit #G2930 (Madison, Wis.) which involves the addition of 50 μL of the provided sulfanilamide solution for a 5-10 minute incubation at room temperature. Next add 50 μL of the provided N-1-napthylethylenediamine dihydrochloride (NED) solution for a 5-10 minute incubation at room temperature and protected from light. If any air bubbles were introduced into the well, the plates need to be centrifuged for 5 minutes at 400×g at room temperature to avoid interference with absorbance readings. The plates were read for absorbance within 30 minutes with a filter between 520 nm and 550 nm.
For the ability of compounds to suppress the increase in nitric oxide release, the percent maximal intensity of nitric oxide detected in each well was normalized to that induced by the peak value for 20 ng/mL of interferon gamma alone and plotted against the compound concentration to calculate IC50 values and to control for plate-to-plate variability. Concentration-response data were analyzed using GraphPad Prism (San Diego, Calif.); the IC50 values were derived from a single curve fit to the mean data of n=2-3, in duplicates.
All compounds were dissolved in dimethyl sulfoxide at 10 mM stock solutions and tested at a concentration that the dimethyl sulfoxide levels never exceeded 1%.
For orientation: Nitrite, measured by Griess reagent, commonly stands in for NO production.
In the case of `C[C@@H]1C(=O)C(C#N)=C[C@]2(C)c3nc(C(N)=O)n(-c4ccccc4)c3CC[C@@H]12` [Compound T27], the IC50 – broadly, the concentration needed to halve the response being measured – was determined as 0.0531 µM.

`Cc1nc2c(n1-c1cccc(CCC(=O)N(C)C)c1)CC[C@H]1[C@H](C)C(=O)C(C#N)=C[C@]21C` [Compound T19]: the IC50 came to 0.0827 µM. On to `COC(=O)CCc1cccc(-n2c(C)nc3c2CC[C@H]2[C@H](C)C(=O)C(C#N)=C[C@]32C)c1` [Compound T14], for which the IC50 amounted to 0.222 µM. `Cc1nc2c(n1-c1cccc(CCC(=O)O)c1)CC[C@H]1[C@H](C)C(=O)C(C#N)=C[C@]21C` [Compound T15]: the IC50 is over 3 µM. Take `Cc1nc2c(n1-c1cccc(CCCO)c1)CC[C@H]1[C@H](C)C(=O)C(C#N)=C[C@]21C` [Compound T6]: the IC50 amounted to 0.0194 µM.

For `C[C@@H]1C(=O)C(C#N)=C[C@]2(C)c3nc(-c4ccncc4)n(-c4ccccc4)c3CC[C@@H]12` [Compound T24], the IC50 is 0.0488 µM.

In the case of `C[C@@H]1C(=O)C(C#N)=C[C@]2(C)c3nc(Br)n(-c4ccccc4)c3CC[C@@H]12` [Compound T23], the IC50 stood at 0.0311 µM. As for `Cc1nc2c(n1-c1ccc(-c3ccccc3)cc1)CC[C@H]1[C@H](C)C(=O)C(C#N)=C[C@]21C` [TS], the IC50 amounted to 0.136 µM. Turning to `C[C@@H]1C(=O)C(C#N)=C[C@]2(C)c3nc(-c4ccccc4)[nH]c3CC[C@@H]12` [Compound T1], the IC50 stood at 0.151 µM. For the compound `C[C@@H]1C(=O)C(C#N)=C[C@]2(C)c3nc(-c4cnn(C)c4)n(-c4nnn(C)n4)c3CC[C@@H]12` [Compound T16], the IC50 came to 0.132 µM. Regarding `Cc1nc2c(n1-c1cnn(C)c1)CC[C@H]1[C@H](C)C(=O)C(C#N)=C[C@]21C` [Compound T13], the IC50 came to 0.233 µM. Turning to `Cc1nc2c(n1-c1cccc(-c3cncnc3)c1)CC[C@H]1[C@H](C)C(=O)C(C#N)=C[C@]21C` [Compound T22], the half-maximal inhibitory concentration (IC50) was 0.0478 µM. Then `CNC(=O)CCc1cccc(-n2c(C)nc3c2CC[C@H]2[C@H](C)C(=O)C(C#N)=C[C@]32C)c1` [Compound T18], with 0.693 µM.

As to `Cc1nc2c(n1-c1ccccc1)CC[C@H]1[C@H](C)C(=O)C(C(N)=O)=C[C@]21C` [Compound T28], the IC50 worked out at 0.138 µM. Regarding `C[C@@H]1C(=O)C(C#N)=C[C@]2(C)c3nc(C#N)n(-c4ccccc4)c3CC[C@@H]12` [Compound T26], the IC50 worked out at 0.0277 µM. With `C[C@@H]1C(=O)C(C#N)=C[C@]2(C)c3nc(-c4ccccc4)n(-c4ccccc4)c3CC[C@@H]12` [Compound T2], the IC50 is 0.471 µM. For `Cc1nc2c(n1-c1ccccc1)CC[C@H]1[C@H](C)C(=O)C(C#N)=C[C@]21C` [Compound T3] the value was 0.0408 µM; for `Cc1nc2c(n1-c1cccc(CCC(N)=O)c1)CC[C@H]1[C@H](C)C(=O)C(C#N)=C[C@]21C` [Compound T20], 1 µM; for `CC(=O)OCCCc1cccc(-n2c(-c3ccccc3)nc3c2CC[C@H]2[C@H](C)C(=O)C(C#N)=C[C@]32C)c1` [Compound T4], 0.662 µM. Turning to `C[C@@H]1C(=O)C(C#N)=C[C@]2(C)c3nc(-c4cnn(C)c4)n(-c4ccccc4)c3CC[C@@H]12` [Compound T9], the IC50 is 0.0227 µM.

Consider `Cc1ccccc1-n1c(C)nc2c1CC[C@H]1[C@H](C)C(=O)C(C#N)=C[C@]21C` [Compound T10], for which the IC50 is 0.0628 µM. Turning to `Cc1nc2c(n1-c1cccc(-c3ccccc3)c1)CC[C@H]1[C@H](C)C(=O)C(C#N)=C[C@]21C` [Compound T7], the IC50 is 0.0918 µM. With `C[C@@H]1C(=O)C(C#N)=C[C@]2(C)c3nc(-c4ccccc4)n(-c4cnn(C)c4)c3CC[C@@H]12` [Compound T17], the IC50 came to 0.12 µM. Take `C[C@@H]1C(=O)C(C#N)=C[C@]2(C)c3nc(CCOCc4ccccc4)n(-c4ccccc4)c3CC[C@@H]12` [Compound T11]: the IC50 amounted to 0.0932 µM. For `Cc1ccccc1-c1nc2c(n1-c1nnn(C)n1)CC[C@H]1[C@H](C)C(=O)C(C#N)=C[C@]21C` [Compound T25] the value was 0.0154 µM; for `C[C@@H]1C(=O)C(C#N)=C[C@]2(C)c3nc(CCO)n(-c4ccccc4)c3CC[C@@H]12` [Compound T12], 0.0113 µM.

On to `COCCCn1c(C)nc2c1CC[C@H]1[C@H](C)C(=O)C(C#N)=C[C@]21C` [Compound T21], for which the IC50 was 0.407 µM. As for `C[C@@H]1C(=O)C(C#N)=C[C@]2(C)c3nc(-c4ccccc4)n(-c4nnn(C)n4)c3CC[C@@H]12` [Compound T8], the IC50 was 0.0288 µM.

Values taken from patent US11059792B2, “Imidazolyl tricyclic enones as antioxidant inflammation modulators” (REATA PHARMACEUTICALS, INC., priority 2015, dated 2021).
